Experiment [1] has as its system 5′ fluorescein-labeled primer:template duplex. Briefly: Ensemble primer extension with gamma-labeled dNTP by Phi29 mutant protein. Type of experiment: biochemical. Particulars: for Ensemble Extension Activity (polymerase active): cysteine to serine variants; for Ensemble Extension Activity: γ-nucleotide incorporation / Ensemble Extension Activity: activity with base-labeled nucleotides: relative to parent Phi29 exo(−) D12A/D66A; for Ensemble Extension Activity: γ-nucleotide incorporation: 0.5 μM or 5 μM gamma-labeled dNTP, 10 seconds to 5 minutes. An excerpt: Table 1, below, summarizes the ability of each mutant Phi29 polymerase to incorporate gamma-labeled nucleotides (as indicated in the column entitled “Ensemble Extension Activity”), fidelity of replication (as indicated in the column entitled “Fidelity”) and for activity in a single-molecule detected system, as depicted in FIGS. 20-59′ and 69-76 and associated description (see below), and indicated in the last column, entitled “Activity on Detection System.” Each and every mutation introduced into a given Phi29 mutant protein is listed in the column entitled “Mutations”; mutations are designated by the original amino acid/its position/its replacement, e.g., V250A means that valine at position 250 was replaced by alanine by site specific mutagenesis. If two or more amino acid substitutions are made, then each is designated as above and separated by a “/”. The predicted effect of a given mutation on polymerase activity, based on structure-function analysis of Phi29 polymerase, is provided in the column entitled “Expected Effect.” The various Phi29 mutants generated via selective mutagenesis, along with any applicable results of extension studies, fidelity assays and single molecule detection studies using each mutant protein, are collectively summarized in Table 1, below. To perform the extension studies, 330 nM Phi29 mutant protein and 100 nM 5′ fluorescein-labeled primer:template duplex were co-incubated in a solution comprising 50 mM Tris (pH 7.0), 2 mM MnCl2, 2 mM DTT, 0.1% Triton-X-100, 0.01% Tween-20. The reactions were initiated by addition of 0.5 μM or 5 μM of gamma-labeled dNTP, and quenched via addition of 30 mM EDTA at timepoints ranging from 10 seconds to 5 minutes. The reaction products were then separated on a 20% denaturing acrylamide gel and imaged on a Bio-Rad Molecular Imager FX. The intensity of each reaction product was quantified using Bio-Rad Quantity One software. FIGS. 20-59′ depict the results of extension studies conducted using specific Phi29 mutants.

The subject of experiment [2] is template specifying incorporation of a single γ-labeled nucleotide. Briefly: Real time on-surface single molecule detection of γ-labeled nucleotide incorporation. Conditions: for Activity on Detection System: more signals: number of signals relative to parent enzyme. The format is biochemical. The method, then:
Real time “On surface” experiments were performed to characterize the activity of the Phi29 variants on an exemplary single molecule sequencing system (FIGS. 72A and B). Chambered slides were prepared to facilitate injection and multiple experiments data collection from several chambers using a single slide. The template specified incorporation of a single γ-labeled nucleotide. The samples were excited using a 488 nm Argon ion laser at 2.5 mW and the data were collected at 25 ms integration time. Each stream of data was collected for 1500 frames, consecutive streams were collected for ˜5 minutes by moving to new fields of views (FOVs). FRETAN software was used to obtain the donor and acceptor traces.
After trace analysis, the selected signals (with acceptor signal over background greater than 4, i.e., ASN≧4) were characterized by examining attributes including duration, ASN and timing of signal appearance (i.e., start of signals). The variants that are of special interest include Variants 2 and 3.

On to “C22S/C290S/C448S: Phi29 exo(−) (D12A/D66A) polymerase mutant”, for which the “Ensemble Extension Activity (polymerase active)” value in experiment [1] is listed as “Slightly less”.

For the substance “C22S/C290S/C530S: Phi29 exo(−) (D12A/D66A) polymerase mutant”, the “Ensemble Extension Activity (polymerase active)” value in experiment [1] was “Slightly less”.

Consider “C22S/C448S/C530S: Phi29 exo(−) (D12A/D66A) polymerase mutant”, for which, in experiment [1], the “Ensemble Extension Activity (polymerase active)” value is “Slightly less”.

Turning to “C22S: Phi29 exo(−) (D12A/D66A) polymerase mutant [Variant C22S]”, the “Ensemble Extension Activity (polymerase active)” value in experiment [1] was “Active”.

Consider “C290S/C448S/C530S: Phi29 exo(−) (D12A/D66A) polymerase mutant”, for which the “Ensemble Extension Activity (polymerase active)” value in experiment [1] is “Slightly less”.

Take “C290S: Phi29 exo(−) (D12A/D66A) polymerase mutant [Variant C290S]”: in experiment [1], the “Ensemble Extension Activity (polymerase active)” value was “Active”.

“C448S: Phi29 exo(−) (D12A/D66A) polymerase mutant [Variant C448S]”: the “Ensemble Extension Activity (polymerase active)” value in experiment [1] was “Active”.

In the case of “C530S: Phi29 exo(−) (D12A/D66A) polymerase mutant [Variant C530S]”, in experiment [1], the “Ensemble Extension Activity (polymerase active)” value is listed as “Active”.

In the case of “D456S: Phi29 exo(−) (D12A/D66A) polymerase mutant [Variant D456S]”, the “Activity on Detection System: more signals” value (“Activity … more signals” for short) in experiment [2] is “Fewer signals”. For the same substance, in experiment [1], the “Ensemble Extension Activity: γ-nucleotide incorporation” value is listed as “Impaired”.

On to “E375A/Q380A: Phi29 exo(−) (D12A/D66A) polymerase mutant”, for which, in experiment [2], the “Activity … more signals” value is 3.5x more signals. For the same substance, the “Ensemble Extension Activity: γ-nucleotide incorporation” value in experiment [1] was “More efficient”.

For the substance “E375C: Phi29 exo(−) (D12A/D66A) polymerase mutant [Variant E375C]”, in experiment [2], the “Activity … more signals” value is “Slightly higher”. Besides, in experiment [2] (relative to parent enzyme), the “Activity on Detection System: Signals detected (timing of appearance)” value was “earlier” and the “Activity on Detection System: high ASB signals” value is “More high ASB signals”. Besides, the “Ensemble Extension Activity: γ-nucleotide incorporation” value in experiment [1] was “More efficient”.

As for “E375W: Phi29 exo(−) (D12A/D66A) polymerase mutant [Variant E375W]”, the “Ensemble Extension Activity: γ-nucleotide incorporation” value in experiment [1] is reported as “Increased γ-nucleotide”.

On to “E375Y/V250C: Phi29 exo(−) (D12A/D66A) polymerase mutant”, for which, in experiment [1], the “Ensemble Extension Activity: γ-nucleotide incorporation” value is on record as “decreased”.

“E375Y/V250D: Phi29 exo(−) (D12A/D66A) polymerase mutant”: the “Ensemble Extension Activity: γ-nucleotide incorporation” value in experiment [1] is “no activity”.

As for “E375Y/V250G: Phi29 exo(−) (D12A/D66A) polymerase mutant”, in experiment [1], the “Ensemble Extension Activity: γ-nucleotide incorporation” value is reported as “no activity”.

For “E375Y/V250H: Phi29 exo(−) (D12A/D66A) polymerase mutant”, the “Ensemble Extension Activity: γ-nucleotide incorporation” value in experiment [1] is reported as “decreased rate”.

As to “E375Y/V250K: Phi29 exo(−) (D12A/D66A) polymerase mutant”, the “Ensemble Extension Activity: γ-nucleotide incorporation” value in experiment [1] was “no activity”.

Consider “E375Y/V250L: Phi29 exo(−) (D12A/D66A) polymerase mutant”, for which, in experiment [1], the “Ensemble Extension Activity: γ-nucleotide incorporation” value is recorded as “decreased”.

“E375Y/V250P: Phi29 exo(−) (D12A/D66A) polymerase mutant”: in experiment [1], the “Ensemble Extension Activity: γ-nucleotide incorporation” value was “no activity”.

Consider “E375Y/V250Q: Phi29 exo(−) (D12A/D66A) polymerase mutant”, for which the “Ensemble Extension Activity: γ-nucleotide incorporation” value in experiment [1] was “decreased”.

As for “E375Y/V250R: Phi29 exo(−) (D12A/D66A) polymerase mutant”, the “Ensemble Extension Activity: γ-nucleotide incorporation” value in experiment [1] is “no activity”.

With “E375Y/V250S: Phi29 exo(−) (D12A/D66A) polymerase mutant”, in experiment [1], the “Ensemble Extension Activity: γ-nucleotide incorporation” value was “decreased”.

For “E375Y/V250T: Phi29 exo(−) (D12A/D66A) polymerase mutant”, the “Ensemble Extension Activity: γ-nucleotide incorporation” value in experiment [1] is on record as “decreased”.

In the case of “E375Y/V250W: Phi29 exo(−) (D12A/D66A) polymerase mutant”, in experiment [1], the “Ensemble Extension Activity: γ-nucleotide incorporation” value is “no activity”.

As to “E375Y: Phi29 exo(−) (D12A/D66A) polymerase mutant [Variant E375Y]”, the “Activity … more signals” value in experiment [2] worked out at 3x more signals. The “Activity on Detection System: long duration signals” value in experiment [2] (relative to parent enzyme) was “More long duration”. The “extension (FIG. 70C, 70D)” value in experiment [1] (ensemble PAGE analyses, γ-nucleotides) is given as “most significant increase in extension”. In addition, the “Ensemble Extension Activity: γ-nucleotide incorporation” value in experiment [1] is listed as “More efficient”.

In the case of “E486A: Phi29 exo(−) (D12A/D66A) polymerase mutant [Variant E486A]”, in experiment [1], the “Ensemble Extension Activity: γ-nucleotide incorporation” value is reported as “Slightly decreased γ-”.

For “E486D: Phi29 exo(−) (D12A/D66A) polymerase mutant [Variant E486D]”, the “Ensemble Extension Activity: γ-nucleotide incorporation” value in experiment [1] is listed as “Decreased γ-nucleotide”.

As to “K371A: Phi29 exo(−) (D12A/D66A) polymerase mutant [Variant K371A]”, the “Ensemble Extension Activity: γ-nucleotide incorporation” value in experiment [1] was “Slightly lower than”.

Consider “K371T: Phi29 exo(−) (D12A/D66A) polymerase mutant [Variant K371T]”, for which the “Ensemble Extension Activity: γ-nucleotide incorporation” value in experiment [1] is “Slightly lower than”.

Turning to “K383A: Phi29 exo(−) (D12A/D66A) polymerase mutant [Variant K383A]”, the “Ensemble Extension Activity: γ-nucleotide incorporation” value in experiment [1] is recorded as “Slightly lower than”.

Consider “K383P: Phi29 exo(−) (D12A/D66A) polymerase mutant [Variant K383P]”, for which, in experiment [1], the “Ensemble Extension Activity: γ-nucleotide incorporation” value was “decreased γ-nucleotide”.

Regarding “K383R: Phi29 exo(−) (D12A/D66A) polymerase mutant [Variant K383R]”, the “Ensemble Extension Activity: γ-nucleotide incorporation” value in experiment [1] is “Slightly lower than”.

“K478A: Phi29 exo(−) (D12A/D66A) polymerase mutant [Variant K478A]”: the “Ensemble Extension Activity: γ-nucleotide incorporation” value in experiment [1] is listed as “Decreased γ-nucleotide”.

“K512A: Phi29 exo(−) (D12A/D66A) polymerase mutant [Variant K512A]”: the “Ensemble Extension Activity: γ-nucleotide incorporation” value in experiment [1] is reported as “Slightly decreased γ-”.

As for “L384R: Phi29 exo(−) (D12A/D66A) polymerase mutant [Variant L384R]”, the “Ensemble Extension Activity: γ-nucleotide incorporation” value in experiment [1] is on record as “Slightly decreased γ-”.

As for “N387A: Phi29 exo(−) (D12A/D66A) polymerase mutant [Variant N387A]”, the “Activity … more signals” value in experiment [2] is on record as “Fewer signals”. Further, the “Ensemble Extension Activity: γ-nucleotide incorporation” value in experiment [1] is “Significantly decreased γ-”.

In the case of “N387Y: Phi29 exo(−) (D12A/D66A) polymerase mutant [Variant N387Y]”, the “Ensemble Extension Activity: γ-nucleotide incorporation” value in experiment [1] is listed as “Significantly decreased γ-”.

“S388G: Phi29 exo(−) (D12A/D66A) polymerase mutant [Variant S388G]”: in experiment [1], the “Ensemble Extension Activity: γ-nucleotide incorporation” value is “Decreased γ-nucleotide”.

“V250A/E375A/Q380A/D456E: Phi29 exo(−) (D12A/D66A) polymerase mutant”: the “Ensemble Extension Activity: γ-nucleotide incorporation” value in experiment [1] is on record as “Impaired”.

With “V250I/E375A/Q380A: Phi29 exo(−) (D12A/D66A) polymerase mutant”, the “Ensemble Extension Activity: γ-nucleotide incorporation” value in experiment [1] is “Decreased rate”.

Regarding “V250I/E375C: Phi29 exo(−) (D12A/D66A) polymerase mutant”, the “Ensemble Extension Activity: γ-nucleotide incorporation” value in experiment [1] is “Decreased rate”.

As to “V250I/E375Y: Phi29 exo(−) (D12A/D66A) polymerase mutant”, in experiment [1], the “Ensemble Extension Activity: γ-nucleotide incorporation” value is on record as “Decreased rate”.

With “Y254F: Phi29 exo(−) (D12A/D66A) polymerase mutant [Variant Y254F]”, in experiment [1], the “Ensemble Extension Activity: activity with base-labeled nucleotides” value is on record as “incorporation, but increased” and the “Ensemble Extension Activity: γ-nucleotide incorporation” value is on record as “Decreased γ-nucleotide”.

As to “Y254V: Phi29 exo(−) (D12A/D66A) polymerase mutant [Variant Y254V]”, in experiment [1], the “Ensemble Extension Activity: activity with base-labeled nucleotides” value is reported as “incorporation, but increased” and the “Ensemble Extension Activity: γ-nucleotide incorporation” value is recorded as “Decreased γ-nucleotide”.

The values are drawn from US20110165652A1, “COMPOSITIONS, METHODS AND SYSTEMS FOR SINGLE MOLECULE SEQUENCING” (LIFE TECHNOLOGIES CORPORATION, priority 2008, published 2011).
